Earlier results on one compound are cited in US12251467B2, “Vaginal hydrogel for delivery of therapeutics” (priority 2018, dated 2025).

≈ marks a conversion by molar mass, not a printed value.

Regarding `Cc1ncc([N+](=O)[O-])n1CCOC(=O)c1ccccc1` [metronidazole benzoate], the solubility in water was 100 µg/mL (≈ 363 µM).
